{"source": "patent US9562082B2", "about": "“Production of glycoproteins with low N-glycolylneuraminic acid (Neu5Gc) content” (LEK Pharmaceuticals D.D., priority 2009, dated 2017)", "key": {"Recombinant CHO cells [1]": {"system": "Recombinant CHO cells", "assay": "Specific productivity (Qp)", "assay_type": "cell-based, Chinese hamster", "conditions": "DMSO 0.75, temperature 37", "procedure": "According to the optimal range of the DMSO concentration, a numerical and graphical optimisation was performed using DOE software (FIG. 3). A minimal content of Neu5Gc and a maximal content of the most acidic isoforms were chosen as very important parameters, while increased titres and growth rates were weighted as medium important parameters. The ramps were extended a little over the limits. […] The specific productivity (Qp) was calculated following Equation 1 and expressed as pg of glycoprotein/[…]=(P2-P1)/((X2+X1)*(t2-t1)/2) Equation 1 (P2 and P1 are concentrations of secreted glycoprotein at the end and at the beginning of the repeated batches, respectively; X1 and X2 are cell concentrations at the corresponding time points t1 and t2)."}, "Recombinant CHO cells [2]": {"system": "Recombinant CHO cells", "assay": "Specific growth rate", "assay_type": "cell-based, Chinese hamster", "conditions": "DMSO 0.75, temperature 37", "procedure": "The specific growth rate was calculated following Equation 2 and represents the overall biomass accumulation under the growth curve from the beginning to the end of the batch process (expressed as a logarithmic value per day (day^−1)). Specific growth rate=ln(X2/X1)/(t2−t1) Equation 2 (X1 is the number of viable cells on day 0 and X2 the number of cells at the end of the repeated batches, respectively. t1 is time 0, and t2 is time 7 or the end day of the process, respectively.)"}}, "data": [{"smiles": "C[S+](C)[O-]", "note": "[DMSO, dimethyl sulfoxide]", "values": [{"measurement": "Specific productivity, DOE point prediction", "setting": "Recombinant CHO cells [1]", "value": 2.43, "unit": "pcd"}, {"measurement": "Specific growth rate, DOE point prediction", "setting": "Recombinant CHO cells [2]", "value": 0.54, "unit": "day⁻¹"}]}]}
